Source: publication PMC11288027, “Exploring novel microbial metabolites and drugs for inhibiting Clostridioides difficile” (mSphere, 2024)
Where “and” joins values, the source holds several entries; their conditions need not be identical. Equal entries are not always repeated. Structures can show the parent of a compound that is named as a salt. Where two headings read alike, the source gives them in different places.

What was measured:
[1] = test system: C. difficile ATCC BAA-1870; assay: MIC of active hits by broth microdilution; conditions: for MIC: Clostridioides difficile, ATCCBAA1870, 48 h
[2] = test system: C. difficile clinical isolates; assay: MIC against a panel of 20 C. difficile clinical isolates (broth microdilution); format: cell-based, Clostridioides difficile; conditions: Clostridioides difficile; for MIC50: concentration that inhibited 50% of the 20 C. difficile clinical isolates
B. fragilis = assay: MIC against human gut microbiota; format: cell-based, Bacteroides fragilis
B. dorei = assay: MIC against human gut microbiota; format: cell-based, Bacteroides dorei; conditions: Phocaeicola dorei, read-out: minimum inhibitory concentration (MIC)
Bif. breve = assay: MIC against human gut microbiota; format: cell-based, Bifidobacterium breve; conditions: Bifidobacterium breve, ATCC15700, read-out: minimum inhibitory concentration (MIC)
Bif. angulatum = assay: MIC against human gut microbiota; format: cell-based, Bifidobacterium angulatum; conditions: Bifidobacterium angulatum, read-out: minimum inhibitory concentration (MIC)
Bif. adolescentis = assay: MIC against human gut microbiota; format: cell-based, Bifidobacterium adolescentis; conditions: Bifidobacterium adolescentis, read-out: minimum inhibitory concentration (MIC)
Bif. longum = assay: MIC against human gut microbiota; format: cell-based, Bifidobacterium longum; conditions: Bifidobacterium longum, read-out: minimum inhibitory concentration (MIC)
E. faecium = assay: MIC against human gut microbiota; format: cell-based, Enterococcus faecium; conditions: Enterococcus faecium, read-out: minimum inhibitory concentration (MIC)
E. fecalis = assay: MIC against human gut microbiota; format: cell-based, Enterococcus faecalis; conditions: Enterococcus faecalis, read-out: minimum inhibitory concentration (MIC)
L. casei = assay: MIC against human gut microbiota; format: cell-based; conditions: Lacticaseibacillus casei, ATCC334, read-out: minimum inhibitory concentration (MIC)
L. brevis = assay: MIC against human gut microbiota; format: cell-based, Lactobacillus brevis; conditions: Levilactobacillus brevis, ATCC14864, read-out: minimum inhibitory concentration (MIC)
L. rhamanosus = assay: MIC against human gut microbiota; format: cell-based, Lactobacillus rhamnoosus; conditions: Lactobacillus, ATCC53103, read-out: minimum inhibitory concentration (MIC)
[3] = test system: C. difficile ATCC BAA-1870; assay: Time-kill assay at 5 × MIC; conditions: C. difficile ATCC BAA-1870, ~10^6 CFU/mL, up to 24 h
[4] = C. difficile ATCC BAA-1870, 48 h anaerobic

Question: How did the MIC [1, 4] turn out when CC(C)=CCC[C@](C)(O[C@@H]1O[C@H](CO)[C@@H](O)[C@H](O)[C@H]1O)[C@H]1CC[C@]2(C)[C@@H]1[C@H](O)C[C@@H]1[C@@]3(C)CC[C@H](O)C(C)(C)[C@@H]3CC[C@]12C [Ginsenoside C-K] was run?
Answer: 16 µM and 9.97 µg/mL

Question: Which results are given for CN[C@H](CC(C)C)C(=O)N[C@H]1C(=O)N[C@@H](CC(N)=O)C(=O)N[C@H]2C(=O)N[C@H]3C(=O)N[C@H](C(=O)N[C@H](C(=O)O)c4cc(O)cc(O)c4-c4cc3ccc4O)[C@H](O)c3ccc(c(Cl)c3)Oc3cc2cc(c3O[C@@H]2O[C@H](CO)[C@@H](O)[C@H](O)[C@H]2O[C@H]2C[C@](C)(N)[C@H](O)[C@H](C)O2)Oc2ccc(cc2Cl)[C@H]1O [Vancomycin, vancomycin hydrochloride]?
Answer: MIC90 [2]: 2 µg/mL; MIC50 ([2]; 48 h): 0.5 µg/mL; MIC ([2]; ATCC630, read-out: minimum inhibitory concentration (MIC), C. difficile ATCC 630): 0.25 µg/mL; MIC ([2]; ATCC43255, read-out: minimum inhibitory concentration (MIC), C. difficile ATCC 43255): 0.25 µg/mL; MIC ([2]; ATCCBAA1870, read-out: minimum inhibitory concentration (MIC), C. difficile ATCC BAA-1870 (Ribotype-027), purchased compounds, panel test): 1 µg/mL; MIC ([2]; read-out: minimum inhibitory concentration (MIC), C. difficile CD-1 (Ribotype-027)): 2 µg/mL; MIC ([2]; read-out: minimum inhibitory concentration (MIC), C. difficile CD-6 (Ribotype-027)): 2 µg/mL; MIC ([2]; read-out: minimum inhibitory concentration (MIC), C. difficile CD-10(Ribotype-027)): 2 µg/mL; MIC ([2]; read-out: minimum inhibitory concentration (MIC), C. difficile CD-12): 1 µg/mL; MIC ([2]; read-out: minimum inhibitory concentration (MIC), C. difficile CD-13): 0.5 µg/mL; MIC ([2]; read-out: minimum inhibitory concentration (MIC), C. difficile CD-15): 0.5 µg/mL; MIC ([2]; read-out: minimum inhibitory concentration (MIC), C. difficile CD-22): 0.5 µg/mL; MIC ([2]; read-out: minimum inhibitory concentration (MIC), C. difficile CD-23): 0.25 µg/mL; MIC ([2]; read-out: minimum inhibitory concentration (MIC), C. difficile CD-24): 0.25 µg/mL; MIC ([2]; read-out: minimum inhibitory concentration (MIC), C. difficile CD-26 (Ribotype-027)): 1 µg/mL; MIC ([2]; read-out: minimum inhibitory concentration (MIC), C. difficile CD-28): 0.5 µg/mL; MIC ([2]; read-out: minimum inhibitory concentration (MIC), C. difficile CD-29 (Ribotype-027)): 1 µg/mL; MIC ([2]; read-out: minimum inhibitory concentration (MIC), C. difficile CD-30): 0.5 µg/mL; MIC ([2]; read-out: minimum inhibitory concentration (MIC), C. difficile NR-49302): 0.5 µg/mL; MIC ([2]; read-out: minimum inhibitory concentration (MIC), C. difficile NR-49304): 0.5 µg/mL; MIC ([2]; read-out: minimum inhibitory concentration (MIC), C. difficile NR-49308): 0.5 µg/mL; MIC ([2]; read-out: minimum inhibitory concentration (MIC), C. difficile NR-49319): 0.5 µg/mL; MIC50 [2]: 0.5 µg/mL; minimum inhibitory concentration (MIC) (B. fragilis): 32 µg/mL; MIC (B. fragilis; Bacteroides fragilis, read-out: minimum inhibitory concentration (MIC)): 16 µg/mL; MIC (B. dorei): 16 µg/mL; MIC (Bif. breve): ≤ 2 µg/mL; MIC (Bif. angulatum): ≤ 2 µg/mL; MIC (Bif. adolescentis): ≤ 2 µg/mL; MIC (Bif. longum): ≤ 2 µg/mL; MIC (E. faecium): ≤ 2 µg/mL; MIC (E. fecalis): > 256 µg/mL; MIC (L. casei): > 256 µg/mL; MIC (L. brevis): > 256 µg/mL; MIC (L. rhamanosus): > 256 µg/mL; time to eliminate / clear C. difficile [3]: ≤ 24 h; MIC [1]: 1 µg/mL

Question: Which “MIC (μM)” value [1, 4] does the source give for Avermectin B1 here?
Answer: 16 µM

Question: And the “MIC (μg/mL)” value [1, 4]?
Answer: 27.71 µg/mL

Question: What does the source list for Ivermectin?
Answer: MIC (μM) [1, 4]: 16 µM; MIC (μg/mL) [1, 4]: 14 µg/mL
